From US12256736B2, “Pyridazine compound and herbicide” (Nippon Soda Co., Ltd., priority 2019, dated 2025)

How the values were obtained:
Type in all cases: in vivo
Digitaria ciliaris [1] = experiment: Test Example 2: tests of treating shoots, herbicidal index; conditions: 63 g/ha, sprayed onto shoots, four weeks after the treatment
Protocol: (§1) An emulsifiable concentrate for test was prepared in the same manner as that described in Test Example 1.
(§2) Seeds of each of Lolium multiflorum, Digitaria ciliaris, and Zea mays for feed were placed in a surface layer of soil filled in a pot with a size of 150 cm^2 and then lightly covered with soil. Subsequently, the pots were kept in a greenhouse to allow the plants to grow. When each of Lolium multiflorum and Digitaria ciliaris grew to a shoot height ranging from 2 to 4 cm, and Zea mays for feed grew to a shoot height ranging from 20 to 30 cm, the emulsifiable concentrate mentioned above was diluted with water so as to have a specified amount of the active ingredient, and then sprayed onto the shoot parts by means of a small-sized sprayer at an application rate of 250 L of water per hectare.
(§3) Four weeks after the treatment, the weight of the shoot part of the alive plant in the untreated plot and the treated plot with respect to each of Lolium multiflorum, Digitaria ciliaris, and Zea mays for feed was measured. The herbicidal index was calculated according to the calculation expression described below.
(§4) (4) Calculation Expression for Herbicidal Index Herbicidal index (%)=[(Weight of the shoot part of the alive plant in the untreated plot−Weight of the shoot part of the alive plant in the treated plot)/(Weight of the shoot part of the alive plant in the untreated plot)]×100
(§5) A diluted emulsifiable concentrate of the compound of A-2 was sprayed at a dosage of 63 g of the compound per hectare.
(§6) In addition, with respect to the compound (A) described in Patent Document 1, the same application as described above was carried out.

Lolium multiflorum [2] = experiment: as above; conditions: 63 g/ha, sprayed onto shoots, four weeks after the treatment
Protocol: as §1, §2, §3, §4, §5, §6

Zea mays for feed [3] = experiment: Test Example 2: tests of treating shoots, herbicidal index (crop); conditions: 63 g/ha, sprayed onto shoots (crop, shoot height 20 to 30 cm), four weeks after the treatment
Protocol: as §1, §2, §3
(4) Calculation Expression for Herbicidal Index Herbicidal index (%)=[(Weight of the shoot part of the alive plant in the untreated plot−Weight of the shoot part of the alive plant in the treated plot)/(Weight of the shoot part of the alive plant in the untreated plot)]×100 […]

Abutilon theophrasti = experiment: Test Example 3: spraying onto shoots, herbicidal index; conditions: sprayed onto shoots, three weeks after the treatment
Protocol: as §1
(§7) Seeds of each of Zea mays for feed, Alopecurus myosuroides, Lolium multiflorum, Avena sativa, Digitaria ciliaris, Setaria faberi, Abutilon theophrasti, and Amaranthus retroflexus were placed in a surface layer of soil filled in a pot with a size of 150 cm^2 and then lightly covered with soil. Subsequently, the pots were kept in a greenhouse to allow the plants to grow. When each of Alopecurus myosuroides, Lolium multiflorum, Avena sativa, Digitaria ciliaris, Setaria faberi, Abutilon theophrasti, and Amaranthus retroflexus grew to a shoot height ranging from 2 to 4 cm, and Zea mays for feed grew to a shoot height ranging from 20 to 30 cm, the emulsifiable concentrate mentioned above was diluted with water so as to have a specified amount of the active ingredient, and then sprayed onto the shoot parts by means of a small-sized sprayer at an application rate of 250 L of water per hectare.
(§8) Three weeks after the treatment, the weight of the shoot part of the alive plant in the untreated plot and the treated plot with respect to each plant was measured. The herbicidal index was calculated according to the calculation expression described below.
as §4
(§9) A diluted emulsifiable concentrate of the compound of A-2 was sprayed at a dosage of 250 g or 63 g of the compound per hectare.
as §6

Alopecurus myosuroides = experiment: as above; conditions: sprayed onto shoots, three weeks after the treatment
Protocol: as §1, §7, §8, §4, §9, §6

Amaranthus retroflexus = experiment: as above; conditions: sprayed onto shoots, three weeks after the treatment
Protocol: as §1, §7, §8, §4, §9, §6

Avena sativa = experiment: as above; conditions: sprayed onto shoots, three weeks after the treatment
Protocol: as §1, §7, §8, §4, §9, §6

Digitaria ciliaris [4] = experiment: as above; conditions: sprayed onto shoots, three weeks after the treatment
Protocol: as §1, §7, §8, §4, §9, §6

Lolium multiflorum [5] = experiment: as above; conditions: sprayed onto shoots, three weeks after the treatment
Protocol: as §1, §7, §8, §4, §9, §6

Setaria faberi = experiment: as above; conditions: sprayed onto shoots, three weeks after the treatment
Protocol: as §1, §7, §8, §4, §9, §6

Zea mays for feed [6] = experiment: Test Example 3: spraying onto shoots, herbicidal index (crop); conditions: sprayed onto shoots (crop, shoot height 20 to 30 cm), three weeks after the treatment
Protocol: as §1, §7, §8, §4, §9, §6

SMILES	Herbicidal index Digitaria ciliaris (Digitaria ciliaris [1])	Herbicidal index Lolium multiflorum (Lolium multiflorum [2])	Herbicidal index Zea mays for feed (Zea mays for feed [3])	Herbicidal index Abutilon theophrasti (Abutilon theophrasti; 63 g ai/ha)	Herbicidal index Abutilon theophrasti (Abutilon theophrasti; 250 g ai/ha)	Herbicidal index Alopecurus myosuroides (Alopecurus myosuroides; 63 g ai/ha)	Herbicidal index Alopecurus myosuroides (Alopecurus myosuroides; 250 g ai/ha)	Herbicidal index Amaranthus retroflexus (Amaranthus retroflexus; 63 g ai/ha)	Herbicidal index Amaranthus retroflexus (Amaranthus retroflexus; 250 g ai/ha)	Herbicidal index Avena sativa (Avena sativa; 63 g ai/ha)	Herbicidal index Avena sativa (Avena sativa; 250 g ai/ha)	Herbicidal index Digitaria ciliaris (Digitaria ciliaris [4]; 63 g ai/ha)	Herbicidal index Digitaria ciliaris (Digitaria ciliaris [4]; 250 g ai/ha)	Herbicidal index Lolium multiflorum (Lolium multiflorum [5]; 63 g ai/ha)	Herbicidal index Lolium multiflorum (Lolium multiflorum [5]; 250 g ai/ha)	Herbicidal index Setaria faberi (Setaria faberi; 63 g ai/ha)	Herbicidal index Setaria faberi (Setaria faberi; 250 g ai/ha)	Herbicidal index Zea mays for feed (Zea mays for feed [6]; 63 g ai/ha)	Herbicidal index Zea mays for feed (Zea mays for feed [6]; 250 g ai/ha)
Cn1ncc(-c2ccc(C(F)(F)F)cc2S(C)(=O)=O)c(O)c1=O [(A)]	80%	40%	50%	80%	90%	50%	90%	100%	100%	60%	80%	80%	90%	40%	50%	80%	100%	40%	90%
Cn1ncc(-c2ccc(C(F)(F)F)c3c2CCCS3(=O)=O)c(O)c1=O [Compound A-2, 5-(1,1-dioxido-8-(trifluoromethyl)thiochroman-5-yl)-4-hydroxy-2-methylpyridazin-3(2H)-one]	90%	100%	0%	100%	100%	80%	100%	100%	100%	100%	100%	90%	100%	100%	100%	100%	100%	0%	20%
